Experimental data: patent US20220119456A1, “ANTI-SARS-COV-2 FUSION PEPTIDES” (KING FAISAL UNIVERSITY, priority 2020, published 2022)
Like-named read-outs stand apart in the source and are kept apart here. Where a SMILES comes first, the peptide text is derived from it.

How the values were obtained:
[1] = test system: SARS-CoV-2 Spike-mediated cell-cell fusion
SARS-CoV-2 = details: for reduction in SARS-CoV-2 plaques formation: 10 μM peptide, Vero E6 cells
[2] = test system: SARS-CoV-2 S pseudotyped VSV viral particles
[3] = test system: SARS-CoV-2 S pseudotyped VSV viral particles; remark: listed apart in the source
[4] = test system: SARS-CoV-2 S pseudotyped VSV viral particles; remark: listed apart in the source
[5] = S pseudotyped VSV viral particles

**Q.** `CC[C@H](C)[C@H](NC(=O)CNC(=O)[C@H](CCCNC(=N)N)NC(=O)[C@@H](NC(=O)[C@H](CCC(N)=O)NC(=O)[C@H](CCCNC(=N)N)NC(=O)[C@H](CC(C)C)NC(=O)[C@H](CCCNC(=N)N)NC(=O)[C@@H](N)Cc1c[nH]cn1)[C@@H](C)CC)C(=O)N[C@@H](CCCNC(=N)N)C(=O)N[C@@H](C)C(=O)N[C@@H](CCCNC(=N)N)C(=O)N[C@H](C(=O)N[C@H](C(=O)N[C@@H](CCC(N)=O)C(=O)N[C@H](C(=O)N[C@@H](CCC(N)=O)C(=O)N[C@@H](CCCCN)C(=O)N[C@@H](CCC(=O)O)C(=O)N[C@H](C(=O)N[C@@H](Cc1c[nH]c2ccccc12)C(=O)N[C@@H](CCCNC(=N)N)C(=O)N[C@@H](CC(C)C)C(=O)N[C@@H](CC(N)=O)C(=O)N[C@@H](CCC(=O)O)C(=O)N[C@H](C(=O)N[C@@H](C)C(=O)N[C@@H](CCCCN)C(=O)N[C@@H](CC(C)C)C(=O)N[C@@H](CC(C)C)C(=O)N[C@@H](CC(N)=O)C(=O)N[C@@H](CCC(=O)O)C(=O)N[C@@H](CO)C(=O)N[C@@H](CC(C)C)C(=O)N[C@H](C(=O)N[C@@H](Cc1ccc(O)cc1)C(=O)N[C@@H](CC(C)C)C(=O)N[C@@H](CCC(N)=O)C(=O)N[C@@H](CCC(=O)O)C(=O)O)[C@@H](C)CC)C(C)C)[C@@H](C)CC)[C@@H](C)CC)C(C)C)C(C)C` [#125] (H-HRLRQIRGIRARVVQIQKEIWRLNEVAKLLNESLIYLQE-OH) was tested. Which IC50 [1] did it give?
**A.** 4400 nM

**Q.** What about the IC50 (SARS-CoV-2) of the same compound?
**A.** 460 nM

**Q.** And the “reduction in SARS-CoV-2 plaques formation” value (SARS-CoV-2)?
**A.** 75%

**Q.** What does the source list for `CC[C@H](C)[C@H](NC(=O)CNC(=O)[C@H](CO)NC(=O)[C@@H](NC(=O)[C@H](CC(=O)O)NC(=O)CNC(=O)[C@H](CC(C)C)NC(=O)[C@@H](NC(=O)[C@@H](N)Cc1c[nH]cn1)C(C)C)[C@@H](C)CC)C(=O)N[C@@H](CC(N)=O)C(=O)N[C@@H](C)C(=O)N[C@@H](CO)C(=O)N[C@H](C(=O)N[C@H](C(=O)N[C@@H](CCC(N)=O)C(=O)N[C@H](C(=O)N[C@@H](CCC(N)=O)C(=O)N[C@@H](CCCCN)C(=O)N[C@@H](CCC(=O)O)C(=O)N[C@H](C(=O)N[C@@H](CC(=O)O)C(=O)N[C@@H](CCCNC(=N)N)C(=O)N[C@@H](CC(C)C)C(=O)N[C@@H](CC(N)=O)C(=O)N[C@@H](CCC(=O)O)C(=O)N[C@H](C(=O)N[C@@H](C)C(=O)N[C@@H](CCCCN)C(=O)N[C@@H](CC(N)=O)C(=O)N[C@@H](CC(C)C)C(=O)N[C@@H](Cc1c[nH]cn1)C(=O)N[C@@H](CCC(=O)O)C(=O)N[C@@H](CO)C(=O)N[C@@H](CC(C)C)C(=O)N[C@H](C(=O)N[C@@H](Cc1ccc(O)cc1)C(=O)N[C@@H](CC(C)C)C(=O)N[C@@H](CCC(N)=O)C(=O)N[C@@H](CCC(=O)O)C(=O)O)[C@@H](C)CC)C(C)C)[C@@H](C)CC)[C@@H](C)CC)C(C)C)C(C)C` [#121]?
**A.** IC50 [1]: 720 nM; IC50 [2]: 160 nM; inhibition against the infection through the endocytosis pathway in VeroE6 cells [3]: ≤ 38%; IC50 [3, 5]: > 10000 nM; inhibition of TMPRSS2-dependent pseudovirus infection through plasma membrane [4]: strong inhibition; IC50 [4, 5]: < 1000 nM; reduction in SARS-CoV-2 plaques formation (SARS-CoV-2): approximately 15%
